From ChEMBL document CHEMBL1909046, “DrugMatrix in vitro pharmacology data”

How the values were obtained:
[1] = target: Delta-type opioid receptor (Homo sapiens, UniProt P41143); assay type: cell membranes, HEK293, Membrane; conditions: hek293; further: in other assays of this panel Not Active means under 50% inhibition at 10 µM
[2] = target: T1, Endothelin-1 receptor (Homo sapiens, UniProt P25101); assay type: cell membranes, Membrane; conditions: cho-k1; further: in other assays of this panel Not Active means under 50% inhibition at 10 µM
T1 sequence (P25101 whole entry): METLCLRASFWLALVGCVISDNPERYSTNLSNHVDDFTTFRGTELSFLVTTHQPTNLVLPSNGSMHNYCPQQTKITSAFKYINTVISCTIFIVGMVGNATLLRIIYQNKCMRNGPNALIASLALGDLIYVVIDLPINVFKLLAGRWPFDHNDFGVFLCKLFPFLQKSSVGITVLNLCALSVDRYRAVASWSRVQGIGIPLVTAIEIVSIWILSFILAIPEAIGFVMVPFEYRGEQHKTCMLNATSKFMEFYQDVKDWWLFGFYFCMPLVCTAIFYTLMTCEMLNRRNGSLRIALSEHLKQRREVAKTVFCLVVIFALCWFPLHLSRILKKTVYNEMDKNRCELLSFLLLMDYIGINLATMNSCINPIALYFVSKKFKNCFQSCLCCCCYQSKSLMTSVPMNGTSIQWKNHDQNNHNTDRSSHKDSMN

[3] = target: Substance-P receptor (Homo sapiens, UniProt P25103); assay type: cell membranes, Membrane; conditions: cho; further: in other assays of this panel Not Active means under 50% inhibition at 10 µM
[4] = DRUGMATRIX: GABAA, Muscimol, Central radioligand binding (ligand: [3H] Muscimol); assay type: cell membranes, Rattus norvegicus, Wistar, Brain, Membrane; conditions: Not Active = under 50% inhibition at 10 µM
[5] = DRUGMATRIX: Platelet-Derived Growth Factor (PDGF) radioligand binding (ligand: [125I] PDGF); assay type: cell-based; conditions: nih3t3; Not Active = under 50% inhibition at 10 µM
[6] = target: Voltage-gated inwardly rectifying potassium channel KCNH2 (Homo sapiens, UniProt Q12809); conditions: hek293; further: in other assays of this panel Not Active means under 50% inhibition at 10 µM
[7] = target: D(1A) dopamine receptor (Homo sapiens, UniProt P21728); assay: DRUGMATRIX: Dopamine D1 radioligand binding (ligand: [3H] SCH-23390); assay type: cell membranes, CHO, Membrane; conditions: Not Active = under 50% inhibition at 10 µM
[8] = DRUGMATRIX: Atrial Natriuretic Factor (ANF) radioligand binding (ligand: [125I] ANF (rat)); assay type: cell membranes, Cavia porcellus, Dunkin-Hartley, Adrenal gland, Membrane; conditions: Not Active = under 50% inhibition at 10 µM

Sequence of Delta-type opioid receptor (P41143 whole entry): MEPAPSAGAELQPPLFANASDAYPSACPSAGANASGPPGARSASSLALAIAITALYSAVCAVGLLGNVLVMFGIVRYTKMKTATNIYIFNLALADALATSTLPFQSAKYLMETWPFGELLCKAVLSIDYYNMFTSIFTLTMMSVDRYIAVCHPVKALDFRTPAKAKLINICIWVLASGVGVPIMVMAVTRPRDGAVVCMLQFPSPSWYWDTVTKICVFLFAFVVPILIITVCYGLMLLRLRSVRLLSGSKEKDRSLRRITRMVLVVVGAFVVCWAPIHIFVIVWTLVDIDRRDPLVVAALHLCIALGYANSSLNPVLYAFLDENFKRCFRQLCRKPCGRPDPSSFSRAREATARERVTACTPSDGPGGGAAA
Sequence of D(1A) dopamine receptor (P21728 whole entry): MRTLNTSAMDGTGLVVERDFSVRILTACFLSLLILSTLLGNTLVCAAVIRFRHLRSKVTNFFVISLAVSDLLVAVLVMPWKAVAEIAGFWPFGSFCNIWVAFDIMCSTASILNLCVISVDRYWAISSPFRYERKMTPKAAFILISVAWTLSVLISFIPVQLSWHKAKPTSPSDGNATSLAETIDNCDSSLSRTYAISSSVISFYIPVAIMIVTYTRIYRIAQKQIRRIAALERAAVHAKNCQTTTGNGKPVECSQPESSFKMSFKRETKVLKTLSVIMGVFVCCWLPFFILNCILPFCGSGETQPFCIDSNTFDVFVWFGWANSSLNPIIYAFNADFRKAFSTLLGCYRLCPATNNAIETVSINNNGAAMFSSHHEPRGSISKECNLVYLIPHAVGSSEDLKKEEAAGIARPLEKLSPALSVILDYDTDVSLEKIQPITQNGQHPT
Sequence of Voltage-gated inwardly rectifying potassium channel KCNH2 (Q12809 whole entry): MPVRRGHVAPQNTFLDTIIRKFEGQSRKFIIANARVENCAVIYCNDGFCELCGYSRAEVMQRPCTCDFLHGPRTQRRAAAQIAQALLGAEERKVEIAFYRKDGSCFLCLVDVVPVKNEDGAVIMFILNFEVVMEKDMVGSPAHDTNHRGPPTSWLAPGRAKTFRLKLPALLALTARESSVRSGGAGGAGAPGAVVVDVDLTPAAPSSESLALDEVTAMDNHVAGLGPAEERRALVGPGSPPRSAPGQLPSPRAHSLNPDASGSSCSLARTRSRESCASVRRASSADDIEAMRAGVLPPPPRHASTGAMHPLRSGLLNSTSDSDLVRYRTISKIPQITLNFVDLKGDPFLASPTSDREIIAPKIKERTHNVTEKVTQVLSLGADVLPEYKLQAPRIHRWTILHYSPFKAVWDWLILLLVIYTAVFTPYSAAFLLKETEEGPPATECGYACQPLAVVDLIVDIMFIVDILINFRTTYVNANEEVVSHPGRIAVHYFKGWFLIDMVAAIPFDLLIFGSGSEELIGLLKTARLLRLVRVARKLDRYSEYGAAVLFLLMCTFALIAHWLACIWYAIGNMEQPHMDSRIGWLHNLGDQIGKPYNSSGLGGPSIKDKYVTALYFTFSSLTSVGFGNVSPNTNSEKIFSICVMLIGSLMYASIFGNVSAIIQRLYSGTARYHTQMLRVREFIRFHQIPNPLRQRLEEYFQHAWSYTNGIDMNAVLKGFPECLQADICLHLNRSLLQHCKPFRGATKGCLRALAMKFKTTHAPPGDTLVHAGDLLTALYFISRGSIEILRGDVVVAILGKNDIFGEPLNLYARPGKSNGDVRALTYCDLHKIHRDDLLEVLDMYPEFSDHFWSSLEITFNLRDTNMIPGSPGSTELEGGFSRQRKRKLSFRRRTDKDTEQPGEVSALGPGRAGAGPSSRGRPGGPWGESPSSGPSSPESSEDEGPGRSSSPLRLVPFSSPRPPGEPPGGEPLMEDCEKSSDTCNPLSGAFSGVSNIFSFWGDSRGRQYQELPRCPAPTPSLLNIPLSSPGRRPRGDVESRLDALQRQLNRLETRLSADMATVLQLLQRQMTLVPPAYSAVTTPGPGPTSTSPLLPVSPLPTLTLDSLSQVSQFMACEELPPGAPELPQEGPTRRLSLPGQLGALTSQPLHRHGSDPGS
Sequence of Substance-P receptor (P25103 whole entry): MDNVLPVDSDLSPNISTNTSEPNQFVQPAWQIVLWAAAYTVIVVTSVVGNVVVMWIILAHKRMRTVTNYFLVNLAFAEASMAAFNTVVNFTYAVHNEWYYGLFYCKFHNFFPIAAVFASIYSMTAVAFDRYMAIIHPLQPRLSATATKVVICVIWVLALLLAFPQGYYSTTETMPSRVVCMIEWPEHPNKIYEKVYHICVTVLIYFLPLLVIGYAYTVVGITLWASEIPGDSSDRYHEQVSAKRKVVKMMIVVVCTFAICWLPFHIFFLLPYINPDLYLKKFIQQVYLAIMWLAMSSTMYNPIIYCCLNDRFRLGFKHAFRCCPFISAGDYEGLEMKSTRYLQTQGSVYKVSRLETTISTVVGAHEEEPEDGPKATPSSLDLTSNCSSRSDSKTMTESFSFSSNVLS

Compound	IC50 [1]	IC50 [2]	IC50 [3]	IC50 [4]	Ki [4]	IC50 [5]	Ki [5]	IC50 [6]	Ki [6]	IC50 ([7]; cho)	IC50 [8]	Ki [8]	Ki [1]	Ki [2]	Ki [3]	Ki ([7]; cho)	IC50 ([7]; read-out: IC50) [nM]	Ki ([7]; read-out: Ki) [nM]
Oc1ccccc1 [PHENOL]	Not Active	Not Active	Not Active	Not Active	Not Active	Not Active	Not Active	Not Active	Not Active	Not Active	Not Active	Not Active	–	–	–	–	–	–
CNC[C@H](O)c1ccc(O)c(O)c1 [EPINEPHRINE]	Not Active	Not Active	Not Active	Not Active	Not Active	Not Active	Not Active	Not Active	Not Active	Not Active	Not Active	Not Active	–	–	–	–	–	–
CN(Cc1cc(Br)cc(Br)c1N)C1CCCCC1 [BROMHEXINE]	Not Active	Not Active	Not Active	Not Active	Not Active	Not Active	Not Active	Not Active	Not Active	Not Active	Not Active	Not Active	–	–	–	–	–	–
CC(C)Cc1ccc([C@H](C)C(=O)O)cc1 [DEXIBUPROFEN]	Not Active	Not Active	Not Active	Not Active	Not Active	Not Active	Not Active	Not Active	Not Active	Not Active	Not Active	Not Active	–	–	–	–	–	–
CC(C)Cn1cnc2c(N)nc3ccccc3c21 [IMIQUIMOD]	Not Active	Not Active	Not Active	Not Active	Not Active	Not Active	Not Active	Not Active	Not Active	Not Active	Not Active	Not Active	–	–	–	–	–	–
CC(C)(C#N)c1cc(Cn2cncn2)cc(C(C)(C)C#N)c1 [ANASTROZOLE]	Not Active	Not Active	Not Active	Not Active	Not Active	Not Active	Not Active	Not Active	Not Active	Not Active	Not Active	Not Active	–	–	–	–	–	–
POVIDONE	Not Active	Not Active	Not Active	Not Active	Not Active	Not Active	Not Active	Not Active	Not Active	Not Active	Not Active	Not Active	Not Active	Not Active	Not Active	Not Active	–	–
Nc1ccc(Cc2ccc(N)cc2)cc1	Not Active	Not Active	Not Active	Not Active	Not Active	Not Active	Not Active	Not Active	Not Active	Not Active	Not Active	Not Active	–	–	–	–	–	–
CARBOXYMETHYLCELLULOSE	Not Active	Not Active	Not Active	Not Active	Not Active	Not Active	Not Active	Not Active	Not Active	Not Active	Not Active	Not Active	Not Active	Not Active	Not Active	Not Active	–	–
c1ccc2sc(SSc3nc4ccccc4s3)nc2c1 [BENZOTHIAZYL DISULFIDE]	Not Active	Not Active	Not Active	Not Active	Not Active	Not Active	Not Active	Not Active	Not Active	–	Not Active	Not Active	–	–	–	–	1190	595
O=C1c2ccccc2C(=O)C1c1ccccc1 [PHENINDIONE]	Not Active	Not Active	Not Active	Not Active	Not Active	Not Active	Not Active	Not Active	Not Active	Not Active	Not Active	Not Active	–	–	–	–	–	–
Nc1ccc(C(=O)O)c(O)c1 [AMINOSALICYLIC ACID]	Not Active	Not Active	Not Active	Not Active	Not Active	Not Active	Not Active	Not Active	Not Active	Not Active	Not Active	Not Active	–	–	–	–	–	–
OC[C@H]1O[C@@H]2O[C@H]3[C@H](O)[C@@H](O)[C@@H](O[C@H]4[C@H](O)[C@@H](O)[C@@H](O[C@H]5[C@H](O)[C@@H](O)[C@@H](O[C@H]6[C@H](O)[C@@H](O)[C@@H](O[C@H]7[C@H](O)[C@@H](O)[C@@H](O[C@H]1[C@H](O)[C@H]2O)O[C@@H]7CO)O[C@@H]6CO)O[C@@H]5CO)O[C@@H]4CO)O[C@@H]3CO [ALFADEX]	Not Active	Not Active	Not Active	Not Active	Not Active	Not Active	Not Active	Not Active	Not Active	Not Active	Not Active	Not Active	–	–	–	–	–	–
COC(=O)C[C@](O)(CCC(C)(C)O)C(=O)O[C@@H]1C(OC)=C[C@]23CCCN2CCc2cc4c(cc2[C@H]13)OCO4 [HARRINGTONINE]	Not Active	Not Active	Not Active	Not Active	Not Active	Not Active	Not Active	Not Active	Not Active	Not Active	Not Active	Not Active	–	–	–	–	–	–
O=C1CN(/N=C/c2ccc([N+](=O)[O-])o2)C(=O)N1 [NITROFURANTOIN]	Not Active	Not Active	Not Active	Not Active	Not Active	Not Active	Not Active	Not Active	Not Active	Not Active	Not Active	Not Active	–	–	–	–	–	–
C[N+](C)(C)CCOC(N)=O.[Cl-] [CARBACHOL]	Not Active	Not Active	Not Active	Not Active	Not Active	Not Active	Not Active	Not Active	Not Active	Not Active	Not Active	Not Active	–	–	–	–	–	–
O=C(NCCN1CCOCC1)c1ccc(Cl)cc1 [MOCLOBEMIDE]	Not Active	Not Active	Not Active	Not Active	Not Active	Not Active	Not Active	Not Active	Not Active	Not Active	Not Active	Not Active	–	–	–	–	–	–
CC12CCC(CC1)C(C)(C)O2 [EUCALYPTOL]	Not Active	Not Active	Not Active	Not Active	Not Active	Not Active	Not Active	Not Active	Not Active	Not Active	Not Active	Not Active	–	–	–	–	–	–
CC(N)Cc1c[nH]c2ccc(OCc3cccs3)cc12 (configuration not stated) [BW-723C86]	Not Active	Not Active	Not Active	Not Active	Not Active	Not Active	Not Active	Not Active	Not Active	Not Active	Not Active	Not Active	–	–	–	–	–	–
